The viability is a read-out of living cells in per cent, often relative to untreated cells. Lower therefore signals more harm to the cells.

The text below walks through data of US8658000B2, “Preparation method of apigenin and dehydrosilybin mixture using radiation” (Korea Atomic Energy Research Institute, priority 2011, dated 2014).

Assay [1] deals with lung carcinoma cell line (A549). The assay can be described thus: EZ-Cytox cell viability assay, lung carcinoma cell line (A549). The format is cell-based. Particulars: Homo sapiens; A549, 50 μg/mL, 24 h, non-treated = 100.
Assay [2] relates to colon carcinoma cell line (SW620). The assay can be described thus: EZ-Cytox cell viability assay, colon carcinoma cell line (SW620). The format is cell-based. Particulars: Homo sapiens, SW-620; SW620, 50 μg/mL, 24 h, non-treated = 100.
Assay [3] deals with lung carcinoma cell line (H460). The assay can be described thus: EZ-Cytox cell viability assay, lung carcinoma cell line (H460). The format is cell-based. Particulars: Homo sapiens, NCI-H460; H460, 50 μg/mL, 24 h, non-treated = 100. On the procedure:
(§1) To investigate the cancer cell inhibitory effect of the compounds of formulae 1 and 2 obtained by the preparation method according to the present invention, experiment was conducted. EZ-Cytox cell viability assay kit (Daeil Lab, Korea) was used to measure cancer cell growth inhibitory activity, and prostate carcinoma cell line (DU145), cervical carcinoma cell line (Hela), colon carcinoma cell line (SW480), and lung carcinoma cell line (H460) were used for cancer cells. All the cancer cells were incubated in 96-well plate at concentration of 5×10^4 cells/mL. After 24 h, dehydrosilybin compound of formula 1 and apigenin compound of formula 2 according to the present invention, and starting substance (i.e., silybin) as a control were treated at concentration of 50 μg/mL. After culturing at 37° C., 5% carbon dioxide environment, 24 h, 10 μL of kit solution was treated in each well. After 3 h of additional culturing, the optical absorbance was measured at 480 nm. The result is listed in Tables 3 to 6 and illustrated in FIGS. 2 to 7.

The test system of assay [4] is colon carcinoma cell line (SW480). The assay can be described thus: EZ-Cytox cell viability assay, colon carcinoma cell line (SW480). It is filed as cell-based. Particulars: Homo sapiens; SW480, 50 μg/mL, 24 h, non-treated = 100. On the procedure: as §1
In assay [5] the test system is prostate carcinoma cell line (DU145). Nature of the assay: EZ-Cytox cell viability assay, prostate carcinoma cell line (DU145). The format is cell-based. Particulars: Homo sapiens, DU-145; DU145, 50 μg/mL, 24 h, non-treated = 100. The method, then:
as §1

Assay [6] deals with cervical carcinoma cell line (Hela). Nature of the assay: EZ-Cytox cell viability assay, cervical carcinoma cell line (Hela). The format is cell-based. To be noted: Homo sapiens, 50 μg/mL, 24 h, non-treated = 100. The method, then:
as §1

The subject of the next assay is various cancers. Particulars: background statement; cited from earlier work.

Turning to `COc1cc(C2Oc3cc(-c4oc5cc(O)cc(O)c5c(=O)c4O)ccc3OC2CO)ccc1O` (stereo not shown) [Compound of formula 1], the viability at 50 µg/mL in assay [1] came out at 58.9%; in assay [2], 27.8%; in assay [3] it was 66.3%; in assay [4], 41.7%; in assay [5], 40.4%; in assay [6] it was 21.1%.

For the compound `O=c1cc(-c2ccc(O)cc2)oc2cc(O)cc(O)c12` [Compound of formula 2, 5,7-dihydroxy-2-(4-hydroxyphenyl)-4H-chroman-4-one], the “concentration at which apigenin can effectively act (anticancer activity)” value in the assay on various cancers was under 50 µM. The viability at 50 µg/mL in assay [1] was determined as 72.1%; in assay [2], 39.4%; in assay [3], 97.4%; in assay [4] it was 49.2%; in assay [5] it was 51.6%; in assay [6], 38.7%.
